The test system of assay [1] is isolated rat aorta. As to the kind of experiment: In vitro induction of tolerance and cross-tolerance: vasorelaxation of pre-exposed rat aortic rings. It is filed as cell-based. The note with it: rings pre-treated with epinephrine and then with the same compound (0.44 mM) versus control; in words. On the procedure:
Aortic rings were prepared as described hereinabove, and were exposed to 0.44 mM GTN (vehicle was water:ethanol:propyleneglycol at proportional ratio of 1:1:1) for 1 hour before CCRC construction, to thereby induce tolerance to nitroglycerine. At the end of the tolerance induction period, rings were thrice washed with the path buffer (Krebs-bicrbonate) every 15 minutes for the following hour and then CCRC for vasorelaxation on GTN-induced tolerance rings were constructed for GTN (pretreated versus untreated rings, FIG. 15), in order to verify the ability to induce and measure GTN tolerance induction in vitro Attempted induction of tolerance to the NO-donating compounds of the present invention was performed under the same conditions as for GTN. Thus, in an exemplary experiment, rings were exposed to 0.44 mM solution of Pet-3 in the attempt to induce tolerance for Pet-3. CCRC were then measured for the vasorelaxing effect of Pet-3 on a group of rings which were pre-exposed to Pet-3 as to induce tolerance to Pet-3, and for an untreated control group. The above protocol was repeated with Pet-2, Pet-7, Pet-8, Pet-12, Pet-24, Pet-43, Pet-149 and Pet-152.
Cross-tolerance studies were conducted using the same technique described above for measuring vasorelaxation of aortic rings from rats. Two groups of aortic rings samples were pre-treated with GTN, then one group was measured for vasorelaxation by GTN and the second group for vasorelaxation by Pet-12, an exemplary NO-donor according to the present invention. For the opposite cross-tolerance studies, two groups of aortic rings samples were pre-treated with Pet-12, then one group was measured for vasorelaxation by GTN and the second group for vasorelaxation by Pet-12.

The subject of assay [2] is c-GMP in slices of thoracic aorta of rats. Nature of the assay: Cyclic-GMP measurement in aortic rat tissue (radioimmunoassay). It is filed as cell-based. The note with it: thoracic aorta of rats; in words. Here is the method:
GTN (10^−6 M) was added to the chamber and, 1 minute after exposure to the drug, rings (usually 3-5) were taken, wrapped with aluminum foil and immediately frozen in liquid nitrogen for storage. Control sample group was treated with the vehicle solution only. At the time of analysis, rings were thawed, blotted over a dry gauzed and weighted. A known weight of tissue was homogenized in 2 ml ice-cold modified Hank's balanced salt solution containing (in gram/liter) NaCl 8; KCl 0.4; glucose 1; KH2PO4 0.06; Na2HPO4 0.047; Phenol red 0.017 and further containing 25 mM EDTA (disodium salt). The homogenate was centrifuged at 4000 g (force units) for 10 minutes at 2-4° C. and the supernatant was thereafter transferred into fresh pre-cooled test tube containing 1 ml of acetonitrile. The tubes were vortex mixed for a few seconds and subsequently centrifuged at 4000 g for 5 minutes at 2-4° C., to remove the precipitated protein. Each supernatant was transferred into a clean test tube and evaporated to dryness under a stream of nitrogen at 55° C. The dry residue was reconstituted with 10 volumes of Tris-EDTA buffer pH 7.5 (0.05 M Tris containing 4 mM EDTA). Aliquots of 100 μl of the reconstituted solution in duplicate were used for c-GMP measurements using Amersham RIA kit, as is described in Haj-Yehia & Benet [Pharmacology, 1995, 273, 1, pp. 94-100]. Standard curves were plotted with six concentrations (0, 0.5, 1, 2, 4 and 8 pmoles of c-GMP per tube).
The NO-tolerance effect of GTN and NO-donor compounds according to the present invention was measured by following the production of c-GMP in slices of thoracic aorta of rats. Thus, the production of c-GMP was measured as described in the methods section above for the reference NO-donor compound GTN, and for the NO-donors of the present invention Pet-2, Pet-3, Pet-7, Pet-8, Pet-10, Pet-12, Pet-24, Pet-59, Pet-147, Pet-149, Pet-152, Pet-154 and Pet-155.

Assay [3] relates to anesthetized hypertensive Sprague-Dawley male rats. As to the kind of experiment: Hypotensive effects: mean arterial pressure after iv bolus in phenylephrine-treated rats. The class given is in vivo, rat. The note with it: rats pre-treated with phenylephrine, in words. Here is the method: Mean arterial pressure (MAP) was monitored and determined during bolus infusion of Pet-2, Pet-3, Pet-7, Pet-8, Pet-12 and Pet-13. Briefly, polyethylene catheters (PE50) were inserted into the carotid artery and into the jugular vein of anesthetized hypertensive Sprague-Dawley male rats (200-300 grams). A blood pressure recorder was placed within the carotid artery. Phenylephrine (0.1 mg) was then injected and the mean arterial blood pressure (MABP) was monitored continuously until a stable baseline was reached. The hypotensive effects of intravenous (iv) bolus doses (0.1 mg of each tested compound) administered intravenously at the jugular vein in minimal volume of vehicle (0.2 ml per dose) were evaluated. Five minutes were allowed between each dose, during which the maximal decrease in MAP was recorded and a dose-response graph comparing the hypotensive effect of the compounds was constructed.

Assay [4] relates to cyclic-GMP in isolated aorta of rats pre-treated in vivo. Nature of the assay: Induction of in vivo nitrate tolerance: cGMP in aorta of rats infused for 16 hours. To be noted: rats infused 200 μg/hour for 16 hours, aorta then exposed to 1 μM; in words. Also noted: species or system rat. Here is the method:
For c-GMP levels and tolerance development, the rat's thoracic aorta was isolated after exposure to the tested compound in vivo, and measured as described above in the in vitro assays.
Male Sprague Dawley rats (220 to 250 grams) were housed under constant temperature and humidity conditions. Light was maintained at a 12/12 light dark cycle. Except for 12 hours before the experiment, when food fasting was initiated, all rats had free access to standard rat pellet diet and tap water. The animals were anesthetized by intraperitoneal injection of ketamine and xylazine combination (50 and 10 milligram per kilogram, respectively). […] The catheters were filled with normal saline solution containing 1000 IU/ml of heparin and plugged with a metal pin. Catheters were externalized to the back of the neck region and secured by a polyester felt disk.
After implantation, the rats were individually housed until they regained their preoperative weight and appeared healthy (3 to 4 days post-operation). At this time point (day 0), an osmotic mini-pump (Alza Corp., Palo Alto, Calif.) delivering constant volume (10 μl/hour) of vehicle or drug was connected to one of the intravenous catheters.
For inducing tolerance to the tested NO-donor according to the present invention, the animals received 200 μg/hour of the tested compound for 16 hours (short-term-induced tolerance). […]

Entries after “also recorded” stand apart in the source; their conditions may differ.

`O=[N+]([O-])OCC(CO[N+](=O)[O-])O[N+](=O)[O-]` [GTN, glyceryl trinitrate, reference compound]: the “tolerance induction in vitro” value in assay [1] is on record as “tolerance induced by treatment with GTN”. Also, the “c-GMP level following a repeated treatment” value in assay [2] is listed as “significantly reduced”. In addition, the “hypotensive effect on MAP following successive administrations” value in assay [3] is “attenuation in its effect on MAP”. Further, the “level of cGMP following a repeated treatment in vivo (tolerance induction)” value in assay [4] was “tolerance inducing effect; also recorded: decreased”.

The record behind these values is patent publication US7498445B2, “Thiazole-based nitric oxide donors capable of releasing two or more nitric oxide molecules and uses thereof” (priority 2004, dated 2009).
